Laboratory results from patent US7579343B2, “Pyrrolo-thiazines and processes for the preparation and use thereof” (Board of Trustees of Michigan State University, priority 2005, dated 2009).

What was measured:
β-ribosidase [1] = assay: β-ribosidase inhibition assay with DHF-riboside substrate, bacterial lysate; format: biochemical, Salmonella sp.35664; conditions: for threshold value for the inhibitor concentration over which no inhibition is observed: lysate of Salmonella sp.35664, DHF-riboside, over a 24 hour period
Method: (§1) The hydrolysis of β-riboside under catalysis by β-ribosidases features an oxocarbenium ion transition state, similar to nucleoside hydrolases, nucleoside phosphorylases and related enzymes. The β-ribosidase inhibitory properties of 6, 7 and 8 were evaluated using 3′,4′-dihydroxyflavone-4′-β-D-ribofuranoside 16 (DHF-riboside) as the substrate and bacterial lysates or whole cells as the source of β-ribosidase. The hydrolysis of this chromogenic substrate can be catalyzed by β-ribosidases to release 3′,4′-dihydroxyflavone, which forms a highly colored chelate with iron.^23
(§2) Compounds 6-8 were evaluated for their ability to inhibit the action of β-ribosidases produced by Gram negative bacteria. There are no commercially available β-ribosidases and it is the usual course to use intrinsic ribosidase activities from actual bacteria or bacterial cell lysates. Ribosidase inhibition assays were performed using Salmonella sp.35664 to produce β-ribosidase enzymes. Both whole cells and lysed bacteria were tested. Ribosidase activity is indicated by a purple color formed by complexation of the freed phenol with ferric ions. FIGS. 7A and 7B are (7A) absorbance of the assay mixture produced by a lysate of Salmonella sp.35664 with 3′,4′-dihydroxyflavone-4′-β-D-ribofuranoside in the presence of 6 in concentrations from 0 to 15 μg/μL over a 24 hour period. (7B) Absorbance of the assay mixture in the presence of 7. Note that the differences in inhibition between the two are marginal at higher inhibitor concentrations. Note also that in both cases there is a threshold value of 0.9 μg/μL for the inhibitor concentration over which no inhibition is observed. The more inhibition of the enzyme, the less cleavage of the substrate.
(§3) Inhibitory potency was determined by spectrophotometrically measuring the residual hydrolytic activities of the bacterial produced β-ribosidase 2. The bacterium used to produce β-ribosidase was Salmonella sp.35664, both whole cell and lysed strains. 3′,4′-Dihydroxyflavone-4′-β-D-ribofuranoside 15 (DHF-riboside) was used as substrate. The assay was performed in a PBS buffer at pH 7.0, 37° C. Serial dilutions were made of the inhibitors to a final concentration of 0.2μg/μL to 15μg/μL in each assay solution. The strain was grown to mid exponential phase and removed from the media and rediluted in PBS buffer. Inhibition studies were performed by adding each strain to the respective buffer solutions along with DHF-riboside, ferric ammonium citrate and inhibitors. For compound 6 and 7, 10% DMSO solution was used to increase the solubility. The solutions were incubated at 37° C. and the absorbance of the complex formed between released 3′,4′-dihydroxyflavone and iron was determined at 387 nm at time 15 min, 30 min, 45 min, 60 min, 75 min, 90 min, 105 min, 2 hours, 2.5 hours, 3.0. hours, 4.0. hours, 4.5 hours, 5 hours, 20 hours, and 24 hours.

β-ribosidase [2] = assay: β-ribosidase inhibition assay with DHF-riboside substrate, whole cells; format: cell-based, Salmonella sp.35664
Method: as §1, §2
In the case of compound 7, no inhibition is also observed for the 3.8 μg/μL inhibitor concentration. There are only minor differences for the inhibitory properties of the two compounds at the higher concentrations.
as §3

E. faecalis 29212 = assay: antibacterial activity, standard MIC testing procedure; format: cell-based
Method: (§4) It was assayed according to the standard MIC testing procedure for antimicrobials.

E. faecalis 51299 = assay: as above; format: cell-based
Method: as §4

S. aureus 43300 = assay: as above; format: cell-based
Method: as §4

O[C@H]1[C@@H](O)CN2CCSC[C@@H]12 [Compound 8, 7(S)-8(R),9(S)-dihydroxy-hexahydro-1H-pyrrolo-[1,4]-thiazine]
β-ribosidase inhibition activity (in words) (β-ribosidase [1]; lysate): no significant inhibition | β-ribosidase inhibition activity (in words) (β-ribosidase [2]; whole cell): no significant inhibition | inhibition at 0.49 µg/mL (E. faecalis 29212; Enterococcus faecalis, 29212, 0.49 μg/ml, read-out: inhibition of bacterial growth): 50% | antibacterial activity (in words) (E. faecalis 29212; initial dilute concentration): good inhibition | inhibition at 0.49 µg/mL (E. faecalis 51299; Enterococcus faecalis, 51299, 0.49 μg/ml, read-out: inhibition of bacterial growth): 50% | antibacterial activity (in words) (E. faecalis 51299; initial dilute concentration): good inhibition | inhibition at 0.49 µg/mL (S. aureus 43300; Staphylococcus aureus, 43300, 0.49 μg/ml, read-out: inhibition of bacterial growth): 70% | antibacterial activity (in words) (S. aureus 43300; initial dilute concentration): good inhibition

O[C@@H]1[C@H]2CSc3ccccc3N2C[C@@H]1O [Compound 7, 2(R)-3(R),4(S)-dihydroxy-2,3,3a,4-tetrahydro-1H-pyrrolo-[2,1-c][1,4]benzothiazine]
β-ribosidase inhibition activity (in words) (β-ribosidase [1]; lysate): comparable | threshold value for the inhibitor concentration over which no inhibition is observed (β-ribosidase [1]): 0.9 µg/µL | β-ribosidase inhibition activity (in words) (β-ribosidase [2]; whole cell): comparable | inhibition at 3.8 μg/μL inhibitor concentration (β-ribosidase [2]; whole cells, 3.8 μg/μL): no inhibition

O[C@H]1[C@@H](O)CN2c3ccccc3SC[C@@H]12 [Compound 6, 2(S),3(R),4(S)-dihydroxy-2,3,3a,4-tetrahydro-1H-pyrrolo-[2,1-c][1,4]benzothiazine]
concentration at which fifty percent inhibition was observed (β-ribosidase [1]; lysate): 7.5 µg/µL | threshold value for the inhibitor concentration over which no inhibition is observed (β-ribosidase [1]): 0.9 µg/µL | inhibition of β-ribosidases (β-ribosidase [1]; lysate, 15 μg/μL (67 mM), at 24 hours): About 70% | concentration at which fifty percent inhibition was observed (β-ribosidase [2]; whole cell): 7.5 µg/µL | β-ribosidase inhibition activity (in words) (β-ribosidase [2]; whole cell): good inhibitory activity | inhibition of β-ribosidases (β-ribosidase [2]; whole cell, 15 μg/μL (67 mM), at 24 hours): About 70%
